Reference: patent US20240228512A1, “ACYCLIC OXAZEPINE COMPOUNDS COMPRISING A 6-AZA MOIETY AND USES THEREOF” (Genentech, Inc., priority 2022, published 2024)

Tests used:
[1] = molecular target: recombinant human KRAS wild type (SOS1-mediated nucleotide exchange) (Homo sapiens (Human), UniProt P01116); test: KRAS biochemical assay, BODIPY-GDP exchange TR-FRET (WT-GDP HTRF)
Experimental: [Worded in the source for another variant; this variant is reported under the same test.] KRAS Biochemical Assay—BODIPY-GDP Exchange TR-FRET.
Biochemical compound potencies were assessed by evaluating inhibition of SOS1-mediated nucleotide exchange in KRAS G12D. The SOS1-promoted exchange of fluorescently-labeled GDP (BOPIDY-GDP) was monitored by time-resolved fluorescence resonance energy transfer (TR-FRET). Compounds solubilized in DMSO were dispensed as concentration series into 384-well white assay plates. […] The reaction was initiated with the addition of 5 μL of 3 nM recombinant human SOS1 and 300 nM BODIPY-GDP in assay buffer. After a 60-minute incubation, the fluorescence was measured with excitation at 337 nm and emission at 490 and 520 nm. The TR-FRET ratio was determined as the fluorescence at 520 nm divided by the fluorescence at 490 nm multiplied by 10,000. […] The normalized TR-FRET results were plotted against compound concentration, and the data fit to a 4-parameter Hill equation to determine the IC50 values.

[2] = molecular target: recombinant human mutant KRas G12V (SOS1-mediated nucleotide exchange) (Homo sapiens (Human), UniProt P01116, G12V); test: KRAS biochemical assay, BODIPY-GDP exchange TR-FRET (G12V-GDP HTRF)
SW620 PERK = SW620 PERK assay; assay type: cell-based; conditions: Homo sapiens, SW-620, SW620, PERK
SW620 cells = test: SW620 3D proliferation assay (CellTiter-Glo); assay type: cell-based; conditions: Homo sapiens, SW-620, 168 h, SW620, 3D culture, 7 days, read-out: SW620 CTG IC50
Experimental: (§1) SW620 and HPAC 3D proliferation assays.
(§2) Compound potencies were assessed in proliferation assays conducted with SW620 and HPAC cell lines grown in 3D cultures. Cells were seeded into 96- or 384-well ultra-low attachment plates at 3000 or 1000 cells/well, respectively, in culture medium (RPMI-1640, 10% FBS, 2 mM L-glutamine). The plated cells were centrifuged briefly, allowed to rest for 30 minutes under ambient conditions, and cultured overnight at 37° C./5% CO2 to initiate the formation of spheroids. Compound dilutions were prepared across a range of concentrations in DMSO and added to the appropriate wells of the assay plates with a 333-fold dilution into the culture medium. The plates were further incubated for 7 days. The quantity of viable cells was assessed using CellTiter-Glo 3D Cell Viability Assay (Promega). The detection reagent penetrates the spheroids and lyses the cells. The released ATP that was detected with luciferase and a luciferase substrate to generate a luminescent readout. […] The data points were fit to a 4-parameter logistic equation to determine IC50 values.

H1975 cells = test: H1975 CTG proliferation assay; assay type: cell-based; conditions: Homo sapiens, NCI-H1975, H1975, CTG
HPAC cells = test: HPAC 3D proliferation assay (CellTiter-Glo); assay type: cell-based; conditions: Homo sapiens, 168 h, 3D culture, 7 days, read-out: HPAC CTG IC50
Experimental: as §1, §2

recombinant human KRAS wild type (SOS1-mediated nucleotide exchange), sequence (P01116-2 other isoform, or with tags, fused parts or gaps): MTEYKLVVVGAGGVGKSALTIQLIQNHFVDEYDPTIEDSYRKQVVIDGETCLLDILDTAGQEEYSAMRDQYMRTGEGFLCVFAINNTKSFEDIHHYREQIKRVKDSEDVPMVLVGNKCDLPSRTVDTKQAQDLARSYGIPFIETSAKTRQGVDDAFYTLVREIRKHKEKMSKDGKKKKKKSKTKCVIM
recombinant human mutant KRas G12V (SOS1-mediated nucleotide exchange), sequence (P01116-2 other isoform, or with tags, fused parts or gaps G12V): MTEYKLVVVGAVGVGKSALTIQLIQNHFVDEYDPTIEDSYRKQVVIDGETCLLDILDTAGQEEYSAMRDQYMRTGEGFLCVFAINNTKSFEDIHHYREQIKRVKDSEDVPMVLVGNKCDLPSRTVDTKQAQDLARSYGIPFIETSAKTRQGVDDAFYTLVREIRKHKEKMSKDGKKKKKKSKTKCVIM

Row | Structure (SMILES) | IC50 [1] [nM] | IC50 [2] [nM] | IC50 (SW620 PERK) [nM] | IC50 (SW620 cells) [nM] | IC50 (H1975 cells) [nM] | IC50 (HPAC cells) [nM]
1 | C[C@H](c1cccnc1N)N1CCOc2nc(-c3cncc4cccc(Cl)c34)c(F)c3nc(OC[C@@]45CCCN4C[C@H](F)C5)nc1c23 [Example 19, 3-((R)-1-(5-(5-chloroisoquinolin-4-yl)-4-fluoro-2-(((2R,7aS)-2-fluorotetrahydro-1H-pyrrolizin-7a(5H)-yl)methoxy)-8,9-dihydro-10H-7-oxa-1,3,6,10-tetraazacyclohepta[de]naphthalen-10-yl)ethyl)pyridin-2-amine] | 6.93 | 0.85 | 112 |  |  | 
2 | Cc1c(F)c(N)cc(-c2nc3c4c(nc(OC[C@@H]5CC[C@H]6COCCN65)nc4c2F)N([C@H](C)c2nccnc2N)CCO3)c1C(F)(F)F [Example 10, 3-((R)-1-(5-(5-amino-4-fluoro-3-methyl-2-(trifluoromethyl)phenyl)-4-fluoro-2-(((6S,8aS)-hexahydro-1H-pyrrolo[2,1-c][1,4]oxazin-6-yl)methoxy)-8,9-dihydro-10H-7-oxa-1,3,6,10-tetraazacyclohepta[de]naphthalen-10-yl)ethyl)pyrazin-2-amine] |  |  | 29.9 | 114 | 53.4 | 439
3 | Cc1cc(N)c(F)c(-c2nc3c4c(nc(OC[C@@]56CCCN5C[C@H](F)C6)nc4c2F)N([C@H](C)c2nccnc2N)CCO3)c1C(F)(F)F [Example 23, 3-((1R)-1-(5-(3-amino-2-fluoro-5-methyl-6-(trifluoromethyl)phenyl)-4-fluoro-2-(((2R,7aS)-2-fluorotetrahydro-1H-pyrrolizin-7a(5H)-yl)methoxy)-8,9-dihydro-10H-7-oxa-1,3,6,10-tetraazacyclohepta[de]naphthalen-10-yl)ethyl)pyrazin-2-amine] |  |  | 7.33 | 31.6 | 32.5 | 92
4 | C#Cc1cccc2cc(O)cc(-c3nc4c5c(nc(OC[C@@]67CCCN6C[C@H](F)C7)nc5c3F)N([C@H](C)c3nccnc3N)CCO4)c12 [Example 11, 4-(10-((R)-1-(3-aminopyrazin-2-yl)ethyl)-4-fluoro-2-(((2R,7aS)-2-fluorotetrahydro-1H-pyrrolizin-7a(5H)-yl)methoxy)-9,10-dihydro-8H-7-oxa-1,3,6,10-tetraazacyclohepta[de]naphthalen-5-yl)-5-ethynyinaphthalen-2-ol] |  |  | 1.9 | 5.32 | 2.59 | 173
5 | Cc1nc(N)c(Cl)c(-c2nc3c4c(nc(OC[C@@]56CCCN5C[C@H](F)C6)nc4c2F)N([C@H](C)c2cccnc2N)CCO3)c1C(F)(F)F (single isomer, unassigned) [Example 601b] | 3.16 | 0.76 |  |  |  | 
6 | Cc1c(F)c(N)cc(-c2nc3c4c(nc(OC[C@@H]5CC(F)(F)CN5C)nc4c2F)N([C@H](C)c2cccnc2N)CCO3)c1C(F)(F)F [Example 20, 3-((R)-1-(5-(5-amino-4-fluoro-3-methyl-2-(trifluoromethyl)phenyl)-2-(((S)-4,4-difluoro-1-methylpyrrolidin-2-yl)methoxy)-4-fluoro-8,9-dihydro-10H-7-oxa-1,3,6,10-tetraazacyclohepta[de]naphthalen-10-yl)ethyl)pyridin-2-amine] |  |  | 8.59 | 30.3 | 421 | 484
7 | Cc1c(F)c(N)c(F)c(-c2nc3c4c(nc(OC[C@@H]5CCCN5C)nc4c2F)N([C@H](C)c2cccnc2N)CCO3)c1C(F)(F)F [Example 624, 3-((1R)-1-(5-(3-amino-2,4-difluoro-5-methyl-6-(trifluoromethyl)phenyl)-4-fluoro-2-(((S)-1-methylpyrrolidin-2-yl)methoxy)-8,9-dihydro-10H-7-oxa-1,3,6,10-tetraazacyclohepta[de]naphthalen-10-yl)ethyl)pyridin-2-amine] |  |  | 5.56 | 11.5 | 363 | 70.5
8 | C[C@H](c1cccnc1N)N1CCOc2nc(-c3c(F)ccc4cnn(C)c34)c(F)c3nc(OC[C@@]45CCCN4C[C@H](F)C5)nc1c23 [Example 634, 3-((1R)-1-(4-fluoro-5-(6-fluoro-1-methyl-1H-indazol-7-yl)-2-(((2R,7aS)-2-fluorotetrahydro-1H-pyrrolizin-7a(5H)-yl)methoxy)-8,9-dihydro-10H-7-oxa-1,3,6,10-tetraazacyclohepta[de]naphthalen-10-yl)ethyl)pyridin-2-amine] |  |  | 85.2 | 612 | 3660 | 1750
9 | Cc1c(F)c(N)cc(-c2nc3c4c(nc(OC[C@@H]5CC(F)(F)CN5C)nc4c2F)N([C@H](C)c2nccnc2N)CCO3)c1C(F)(F)F [Example 8, 3-((R)-1-(5-(5-amino-4-fluoro-3-methyl-2-(trifluoromethyl)phenyl)-2-(((S)-4,4-difluoro-1-methylpyrrolidin-2-yl)methoxy)-4-fluoro-8,9-dihydro-10H-7-oxa-1,3,6,10-tetraazacyclohepta[de]naphthalen-10-yl)ethyl)pyrazin-2-amine] |  |  | 139 | 456 | 555 | 2000
10 | Cc1c(F)c(N)c(F)c(-c2nc3c4c(nc(OC[C@@]56CCCN5C[C@H](F)C6)nc4c2F)N([C@H](C)c2nccnc2N)CCO3)c1C(F)(F)F [Example 13, 3-((1R)-1-(5-(3-amino-2,4-difluoro-5-methyl-6-(trifluoromethyl)phenyl)-4-fluoro-2-(((2R,7aS)-2-fluorotetrahydro-1H-pyrrolizin-7a(5H)-yl)methoxy)-8,9-dihydro-10H-7-oxa-1,3,6,10-tetraazacyclohepta[de]naphthalen-10-yl)ethyl)pyrazin-2-amine] |  |  |  | 26.7 | 73.4 | 

The next lines start with results.

Row | IC50 [1] [nM] | IC50 [2] [nM] | IC50 (SW620 PERK) [nM] | IC50 (SW620 cells) [nM] | IC50 (H1975 cells) [nM] | Structure (SMILES) | IC50 (HPAC cells) [nM]
11 |  |  | 15.6 | 28.4 | 2500 | Cc1c(F)c(N)cc(-c2nc3c4c(nc(OC[C@@]56CCCN5C[C@H](F)C6)nc4c2F)N([C@H](C)c2cccnc2N)CCO3)c1CC(F)F [Example 612, 3-((R)-1-(5-(5-amino-2-(2,2-difluoroethyl)-4-fluoro-3-methylphenyl)-4-fluoro-2-(((2R,7aS)-2-fluorotetrahydro-1H-pyrrolizin-7a(5H)-yl)methoxy)-8,9-dihydro-10H-7-oxa-1,3,6,10-tetraazacyclohepta[de]naphthalen-10-yl)ethyl)pyridin-2-amine] | 359
12 |  |  | 22.1 | 30.6 | 97.7 | C[C@H](c1cccnc1N)N1CCOc2nc(-c3c(C(F)(F)F)cc(F)c(N)c3F)c(F)c3nc(OC[C@@]45CCCN4C[C@H](F)C5)nc1c23 [Example 621, 3-((1R)-1-(5-(3-amino-2,4-difluoro-6-(trifluoromethyl)phenyl)-4-fluoro-2-(((2R,7aS)-2-fluorotetrahydro-1H-pyrrolizin-7a(5H)-yl)methoxy)-8,9-dihydro-10H-7-oxa-1,3,6,10-tetraazacyclohepta[de]naphthalen-10-yl)ethyl)pyridin-2-amine] | 339
13 |  |  | 19.3 | 26.2 | 11.2 | Cc1c(F)c(N)cc(-c2nc3c4c(nc(OC[C@@]56CCCN5C[C@H](F)C6)nc4c2F)N([C@H](C)c2nccnc2N)CCO3)c1C(F)(F)F [Example 9, 3-((R)-1-(5-(5-amino-4-fluoro-3-methyl-2-(trifluoromethyl)phenyl)-4-fluoro-2-(((2R,7aS)-2-fluorotetrahydro-1H-pyrrolizin-7a(5H)-yl)methoxy)-8,9-dihydro-10H-7-oxa-1,3,6,10-tetraazacyclohepta[de]naphthalen-10-yl)ethyl)pyrazin-2-amine] | 74.7
14 |  |  | 2.45 | 2.25 | 7.12 | Cc1c(F)c(N)cc(-c2nc3c4c(nc(OC[C@@]56CCCN5C[C@H](F)C6)nc4c2Cl)N([C@H](C)c2cccnc2N)CCO3)c1C(F)(F)F [Example 32, 3-((R)-1-(5-(5-amino-4-fluoro-3-methyl-2-(trifluoromethyl)phenyl)-4-chloro-2-(((2R,7aS)-2-fluorotetrahydro-1H-pyrrolizin-7a(5H)-yl)methoxy)-8,9-dihydro-10H-7-oxa-1,3,6,10-tetraazacyclohepta[de]naphthalen-10-yl)ethyl)pyridin-2-amine] | 18.7
15 | 0.255 | 0.07 |  | 6.14 | 47.6 | Cc1nc(N)c(Cl)c(-c2nc3c4c(nc(OC[C@@]56CCCN5C[C@H](F)C6)nc4c2F)N([C@H](C)c2cccnc2N)CCO3)c1C(F)(F)F (single isomer, unassigned) [Example 601a] | 
